{"source": "patent US20170037007A1", "about": "“SUBSTITUTED N-(2-(AMINO)-2OXOETHYL)BENZAMIDE INHIBITORS OF AUTOTAXIN AND THEIR PREPARATION AND USE IN THE TREATMENT OF LPA-DEPENDENT OR LPA-MEDIATED DISEASES” (X-Rx, Inc., priority 2014, published 2017)", "biological_target": "T1, Autotaxin (Homo sapiens, UniProt Q13822)", "T1 construct": "purchased X-Chem", "assay": "Autotaxin LPC Cascade Assay", "type": "biochemical", "settings": "5 nM autotaxin, 100 μM LPC, choline oxidase/HRP/Ampliflu Red fluorescence readout; read-out: IC50 ATX activity values, IC50", "protocol": "Autotaxin LPC Cascade Assay\nHA130 and Test Compounds:\nHighest final concentration is […] for HA130 (Echelon, B-0701) and 30 μM for test compounds. Prepare a 1 mM stock of HA130 and a 3 mM stock of each compound in 100% DMSO. Perform a 1:3 serial dilution in DMSO (transfer 5 μl of compound to 10 μl of DMSO). Add 240 μl of buffer to generate a top working concentration of 40 µM (HA130) and 120 µM (test compound) in 4% DMSO.\nAmpliflu Red—Prepare a stock of 5 mM from 100 mM in 100% DMSO. Further dilute to a working concentration of 400 μM in buffer (8% DMSO).\nTogether with compound this yields a 2% DMSO final concentration.\nCholine Oxidase/HRP—0.8 U/ml CO and 8 U/ml HRP.\nAdd 5 μl of ATX and 5 μl of compound in a 384 well plate (Corning 3676). Incubate for 10 mins at RT. Add 5 μl of LPC and incubate for 1 hr on the plate shaker. Prepare the CO/HRP and AR prior to use. Add 2.5 μl of CO/HRP and follow with 2.5 μl AR. Note order of addition, CO/HRP mix before AR. Read fluorescence intensity (λex/λem: 530/590 nm) kinetically for 30 min at RT on the Tecan M1000."}
{"smiles": "CC(C)[C@@H](NC(=O)c1cc(C(F)(F)F)ccc1F)C(=O)N1CCC(Nc2ccc3[nH]ncc3c2)CC1", "note": "[Example 23, (R)—N-(1-(4-(1H-Indazol-5-ylamino)piperidin-1-yl)-3-methyl-1-oxobutan-2-yl)-2-fluoro-5-(trifluoromethyl)benzamide]", "values": [{"measurement": "IC50", "result": "5 to 10", "unit": "µM"}]}
{"smiles": "COCC1(Nc2ccccc2)CCN(C(=O)[C@H](NC(=O)c2cccc(C)c2)C(C)C)CC1", "note": "[Example 17, (R)—N-(1-(4-(Methoxymethyl)-4-(phenylamino)piperidin-1-yl)-3-methyl-1-oxobutan-2-yl)-3-methylbenzamide]", "values": [{"measurement": "IC50", "result": "≥ 10", "unit": "µM"}]}
{"smiles": "Cc1cccc(C(=O)N[C@@H](C(=O)N2CCC(C)(Nc3cccc(C#N)c3)CC2)C(C)C)c1F", "note": "[Example 2, (R)—N-(1-(4-(3-Cyanophenylamino)-4-methylpiperidin-1-yl)-3-methyl-1-oxobutan-2-yl)-2-fluoro-3-methylbenzamide]", "values": [{"measurement": "IC50", "result": "5 to 10", "unit": "µM"}]}
{"smiles": "CC1(Nc2ccc(S(C)(=O)=O)cc2)CCN(C(=O)[C@H](NC(=O)c2cc(OC(F)(F)F)ccc2F)C2CC2)CC1", "note": "[Example 13, (R)—N-(1-Cyclopropyl-2-(4-methyl-4-((4-(methylsulfonyl)phenyl)amino)piperidin-1-yl)-2-oxoethyl)-2-fluoro-5-(trifluoromethoxy)benzamide]", "values": [{"measurement": "IC50", "result": "0.1 to 0.5", "unit": "µM"}]}
{"smiles": "CCc1ccc(F)c(C(=O)N[C@@H](C(=O)N2CCC(C)(Nc3ccc(CS(C)(=O)=O)cc3)CC2)C(C)C)c1", "note": "[Example 26, (R)-5-Ethyl-2-fluoro-N-(3-methyl-1-(4-methyl-4-(4-(methylsulfonylmethyl)phenylamino)piperidin-1-yl)-1-oxobutan-2-yl)benzamide]", "values": [{"measurement": "IC50", "result": "0.01 to 0.1", "unit": "µM"}]}
{"smiles": "CC(C)[C@@H](NC(=O)c1cc(-c2ccccc2)ccc1F)C(=O)N1CCC(C)(Nc2ccc(S(C)(=O)=O)cc2)CC1", "note": "[Example 32, (R)-4-Fluoro-N-(3-methyl-1-(4-methyl-4-(4-(methylsulfonyl)phenylamino)piperidin-1-yl)-1-oxobutan-2-yl)biphenyl-3-carboxamide]", "values": [{"measurement": "IC50", "result": "0.1 to 0.5", "unit": "µM"}]}
{"smiles": "CC(C)[C@@H](NC(=O)c1cc(OC(F)(F)F)ccc1F)C(=O)N1CCC(C)(Nc2ccc(C(=O)O)cc2)CC1", "note": "[Example 11, (R)-4-((1-(2-(2-Fluoro-5-(trifluoromethoxy)benzamido)-3-methylbutanoyl)-4-methylpiperidin-4-yl)amino)benzoic acic]", "values": [{"measurement": "IC50", "result": "0.1 to 0.5", "unit": "µM"}]}
{"smiles": "CC(C)[C@@H](NC(=O)c1cccc(OC(F)(F)F)c1)C(=O)N1CCC(C)(NC(=O)c2ccc(S(C)(=O)=O)cc2)CC1", "note": "[Example 38, (R)—N-(3-Methyl-1-(4-methyl-4-(4-(methylsulfonyl)benzamido)piperidin-1-yl)-1-oxobutan-2-yl)-3-(trifluoromethoxy)benzamide]", "values": [{"measurement": "IC50", "result": "0.5 to 5", "unit": "µM"}]}
{"smiles": "CCc1cc(C(=O)N[C@@H](C(=O)N2CCC(C)(Nc3ccc(S(C)(=O)=O)cc3)CC2)C(C)C)c(F)cc1C", "note": "[Example 34, (R)-5-Ethyl-2-fluoro-4-methyl-N-(3-methyl-1-(4-methyl-4-(4-(methylsulfonyl)phenylamino)piperidin-1-yl)-1-oxobutan-2-yl)benzamide]", "values": [{"measurement": "IC50", "result": "0.1 to 0.5", "unit": "µM"}]}
{"smiles": "CC(C)[C@@H](NC(=O)c1cc(OC(F)(F)F)ccc1F)C(=O)N1CCC(C)(Nc2ccccc2)CC1", "note": "[Example 10, (R)-2-Fluoro-N-(3-methyl-1-(4-methyl-4-(phenylamino)piperidin-1-yl)-1-oxobutan-2-yl)-5-(trifluoromethoxy)benzamide]", "values": [{"measurement": "IC50", "result": "0.1 to 0.5", "unit": "µM"}]}
{"smiles": "CC(C)[C@@H](NC(=O)c1cccc(OC(F)(F)F)c1)C(=O)N1CCC(C)(Nc2ccc(C(=O)O)cc2)CC1", "note": "[Example 9, (R)-4-((4-Methyl-1-(3-methyl-2-(3-(trifluoromethoxy)benzamido)butanoyl)piperidin-4-yl)amino)benzoic acid]", "values": [{"measurement": "IC50", "result": "0.1 to 0.5", "unit": "µM"}]}
{"smiles": "CC(C)[C@@H](NC(=O)c1cc(OC(F)F)ccc1F)C(=O)N1CCC(C)(Nc2ccc(S(C)(=O)=O)cc2)CC1", "note": "[Example 28, (R)-5-(Difluoromethoxy)-2-fluoro-N-(3-methyl-1-(4-methyl-4-(4-(methylsulfonyl)phenylamino)piperidin-1-yl)-1-oxobutan-2-yl)benzamide]", "values": [{"measurement": "IC50", "result": "0.1 to 0.5", "unit": "µM"}]}
{"smiles": "COc1ccc(CNC2(C)CCN(C(=O)[C@H](NC(=O)c3cc(OC(F)(F)F)ccc3F)C(C)C)CC2)cc1", "note": "[Example 40, (R)-2-Fluoro-N-(1-(4-((4-methoxybenzyl)amino)-4-methylpiperidin-1-yl)-3-methyl-1-oxobutan-2-yl)-5-(trifluoromethoxy)benzamide]", "values": [{"measurement": "IC50", "result": "0.1 to 0.5", "unit": "µM"}]}
{"smiles": "CC(C)[C@@H](NC(=O)c1cc(C(F)(F)F)ccc1F)C(=O)N1CCC(Nc2ccc(S(C)(=O)=O)cc2)CC1", "note": "[Example 22, (R)-2-Fluoro-N-(3-methyl-1-(4-(4-(methylsulfonyl)phenylamino)piperidin-1-yl)-1-oxobutan-2-yl)-5-(trifluoromethyl)benzamide]", "values": [{"measurement": "IC50", "result": "≥ 10", "unit": "µM"}]}
{"smiles": "Cc1cccc(C(=O)N[C@@H](C(=O)N2CCC(C)(Nc3ccc(C#N)cc3)CC2)C(C)C)c1F", "note": "[Example 1, (R)—N-(1-(4-(4-Cyanophenylamino)-4-methylpiperidin-1-yl)-3-methyl-1-oxobutan-2-yl)-2-fluoro-3-methylbenzamide]", "values": [{"measurement": "IC50", "result": "0.5 to 5", "unit": "µM"}]}
{"smiles": "Cc1cccc(C(=O)N[C@@H](C(=O)N2CCC(C)(N(C)c3ccccc3)CC2)C(C)C)c1", "note": "[Example 20, (R)-3-Methyl-N-(3-methyl-1-(4-methyl-4-(methyl(phenyl)amino)piperidin-1-yl)-1-oxobutan-2-yl)benzamide]", "values": [{"measurement": "IC50", "result": "0.5 to 5", "unit": "µM"}]}
{"smiles": "CCc1ccc(F)c(C(=O)N[C@@H](C(=O)N2CCC(C#N)(Nc3ccc(S(C)(=O)=O)cc3)CC2)C(C)C)c1", "note": "[Example 18, (R)—N-(1-(4-Cyano-4-(4-(methylsulfonyl)phenylamino)piperidin-1-yl)-3-methyl-1-oxobutan-2-yl)-5-ethyl-2-fluorobenzamide]", "values": [{"measurement": "IC50", "result": "0.5 to 5", "unit": "µM"}]}
{"smiles": "CC(C)[C@@H](NC(=O)c1cc(C(F)(F)F)ccc1F)C(=O)N1CCC(C)(Nc2ccc(C(=O)O)cc2)CC1", "note": "[Example 21, (R)-4-(1-(2-(2-Fluoro-5-(trifluoromethyl)benzamido)-3-methylbutanoyl)-4-methylpiperidin-4-ylamino)benzoic acid]", "values": [{"measurement": "IC50", "result": "0.1 to 0.5", "unit": "µM"}]}
{"smiles": "COc1ccc(NC2(C)CCN(C(=O)[C@H](NC(=O)c3cccc(OC(F)(F)F)c3)C(C)C)CC2)cc1", "note": "[Example 8, (R)—N-(1-(4-((4-Methoxyphenyl)amino)-4-methylpiperidin-1-yl)-3-methyl-1-oxobutan-2-yl)-3-(trifluoromethoxy)benzamide]", "values": [{"measurement": "IC50", "result": "0.1 to 0.5", "unit": "µM"}]}
{"smiles": "CC(=O)Nc1ccc(N(C)C2(C)CCN(C(=O)[C@H](NC(=O)c3cc(C(F)(F)F)ccc3F)C(C)C)CC2)cc1", "note": "[Example 19, (R)—N-(1-(4-(4-Acetamidophenyl(methyl)amino)-4-methylpiperidin-1-yl)-3-methyl-1-oxobutan-2-yl)-2-fluoro-5-(trifluoromethyl)benzamide]", "values": [{"measurement": "IC50", "result": "0.1 to 0.5", "unit": "µM"}]}
{"smiles": "CC(C)Cc1ccc(F)c(C(=O)N[C@@H](C(=O)N2CCC(C)(Nc3ccc(S(C)(=O)=O)cc3)CC2)C(C)C)c1", "note": "[Example 31, (R)-2-Fluoro-5-isobutyl-N-(3-methyl-1-(4-methyl-4-(4-(methylsulfonyl)phenylamino)piperidin-1-yl)-1-oxobutan-2-yl)benzamide]", "values": [{"measurement": "IC50", "result": "0.01 to 0.1", "unit": "µM"}]}
{"smiles": "Cc1cccc(C(=O)N[C@@H](C(=O)N2CCC(C)(Nc3ccc(S(C)(=O)=O)cc3)CC2)C(C)C)c1F", "note": "[Example 3, (R)-2-Fluoro-3-methyl-N-(3-methyl-1-(4-methyl-4-(4-(methylsulfonyl)phenylamino)piperidin-1-yl)-1-oxobutan-2-yl)benzamide]", "values": [{"measurement": "IC50", "result": "0.5 to 5", "unit": "µM"}]}
{"smiles": "CC(C)[C@@H](NC(=O)c1cc(C(F)(F)F)ccc1F)C(=O)N1CCC(Nc2ccc(C(=O)O)cc2)CC1", "note": "[Example 24, (R)-4-(1-(2-(2-Fluoro-5-(trifluoromethyl)benzamido)-3-methylbutanoyl)piperidin-4-ylamino)benzoic acid]", "values": [{"measurement": "IC50", "result": "≥ 10", "unit": "µM"}]}
{"smiles": "CC(C)c1ccc(F)c(C(=O)N[C@@H](C(=O)N2CCC(C)(Nc3ccc(S(C)(=O)=O)cc3)CC2)C(C)C)c1", "note": "[Example 36, (R)-2-Fluoro-5-isopropyl-N-(3-methyl-1-(4-methyl-4-(4-(methylsulfonyl)phenylamino)piperidin-1-yl)-1-oxobutan-2-yl)benzamide]", "values": [{"measurement": "IC50", "result": "0.01 to 0.1", "unit": "µM"}]}
{"smiles": "CC(C)[C@@H](NC(=O)c1cc(C(C)(C)C)ccc1F)C(=O)N1CCC(C)(Nc2ccc(S(C)(=O)=O)cc2)CC1", "note": "[Example 29, (R)-5-tert-Butyl-2-fluoro-N-(3-methyl-1-(4-methyl-4-(4-(methylsulfonyl)phenylamino)piperidin-1-yl)-1-oxobutan-2-yl)benzamide]", "values": [{"measurement": "IC50", "result": "0.5 to 5", "unit": "µM"}]}
{"smiles": "CC(C)[C@@H](NC(=O)c1cccc(OC(F)(F)F)c1)C(=O)N1CCC(C)(Nc2ccccc2)CC1", "note": "[Example 7, (R)—N-(3-Methyl-1-(4-methyl-4-(phenylamino)piperidin-1-yl)-1-oxobutan-2-yl)-3-(trifluoromethoxy)benzamide]", "values": [{"measurement": "IC50", "result": "0.5 to 5", "unit": "µM"}]}
{"smiles": "COc1ccc(NC2(C)CCN(C(=O)[C@H](NC(=O)c3cc(OC(F)(F)F)ccc3F)C(C)C)CC2)cc1", "note": "[Example 12, (R)-2-Fluoro-N-(1-(4-((4-methoxyphenyl)amino)-4-methylpiperidin-1-yl)-3-methyl-1-oxobutan-2-yl)-5-(trifluoromethoxy)benzamide]", "values": [{"measurement": "IC50", "result": "0.1 to 0.5", "unit": "µM"}]}
{"smiles": "CNC(=O)C1(Oc2ccccc2)CCN(C(=O)[C@H](NC(=O)c2cccc(C)c2F)C(C)C)CC1", "note": "[Example 14, (R)-1-(2-(2-Fluoro-3-methylbenzamido)-3-methylbutanoyl)-N-methyl-4-phenoxypiperidine-4-carboxamide]", "values": [{"measurement": "IC50", "result": "0.5 to 5", "unit": "µM"}]}
